Test results from patent US20250269072A1, “PROCESSES FOR PREPARING RADIOLABELLED CONJUGATES” (CENTENARY INSTITUTE OF CANCER MEDICINE AND CELL BIOLOGY, priority 2021, published 2025).

How the values were obtained:
tumor deposits = experiment: In-human study of ^68Ga-CDI: tumor uptake; format: in vivo
Method: (§1) Eight serial PET scans were then performed from skull vertex to the proximal femora. The first PET scan commenced immediately following administration of ^68Ga-CDI, with subsequent scans commencing at approximately 7, 17, 29, 47, 64, 120 and 180 minutes after administration (+/−5 minutes). All scans were performed on a Phillips ingenuity TF 128 PET CT scanner (Philips Medical Systems, Cleveland) with acquisition times increasing for each subsequent scan ranging from 30 s/bed (immediately after administration) to 240 s/bed (at 180 minutes after administration) to compensate for excretion and decay. All PET scans were reconstructed using CT attenuation correction with a time of flight, list-mode, blob-based, ordered subsets maximum likelihood expectation maximization algorithm (BLOB-OS-TF) (reconstructed voxel size 4×4×4 mm).
(§2) For analysis of uptake and biodistribution in normal tissues and organs, spherical volumes of interest (VOIs) were drawn on the Digital Imaging and Communications in Medicine (DICOM) ^68Ga-CDI-PET emission data on a workstation (IntelliSpace Portal, V5.0.2.60000, Philips Medical System, Best, The Netherlands) by an experienced nuclear medicine physician over clearly tumor-free regions of organs. VOI diameter varied depending on organ size but where possible was at least 10 mm. Spherical VOIs were also drawn over all tumor deposits greater than 10 mm in diameter. These VOIs were replicated across all time points and the mean, maximum and standard deviation of the activity concentration (Bq/mL) of all VOIs at each time point was recorded. Activity concentration was used to calculate the % injected activity (% IA) for organs and tissues based on the masses of source organs for standard phantom male and female models (Stabin & Siegel, Health Phys. 2003; 85:294-310). Mean, maximum and standard deviation of the SUV for each VOI was also a calculated from the activity concentration using the slope intercept stored with the DICOM CDI PET emission data.

[1] = In-human study of ^68Ga-CDI: biodistribution (PET CT, blood, urine); format: in vivo
Method: Subjects were encouraged to be well orally hydrated prior to ^68Ga-CDI administration, otherwise there was no preparation required. Two intravenous cannulas were placed (one for administration of ^68Ga-CDI and the other blood sampling during the study). Immediately prior to ^68Ga-CDI administration clinical assessment of participants was performed, vital signs (blood pressure, heart rate, respiratory rate, arterial oxygen saturation and temperature) measured and a 12-lead electrocardiogram (ECG) obtained and QTc calculated according to Bazett's formula to confirm eligibility. ^68Ga-CDI was administered as an intravenous bolus.
as §1
Immediately prior to the scan commencing at approximately 47 minutes post administration a low-dose, non-contrast CT of the same region was performed for attenuation correction and localisation (of the first six scans during which time the patient had not moved) (44-120 mAs, 120-140 kV adjusted for body weight and body mass index, iDose 3 iterative reconstruction, reconstructed voxel size 1.17×1.17×3 mm). Ultra-low dose non-contrast CT (25 mAs, 100 kV, filtered back projection reconstruction, reconstructed voxel size 1.17×1.17×3 mm) was performed for attenuation correction immediately prior to the 120 minute and 180 minute PET scans.
During and immediately following completion of the scanning protocol, subjects were clinically assessed for adverse reactions and vital signs measured. Blood was collected for venous radioactivity measurements at 1, 2 and 3 hours following ^68Ga-CDI administration. Subjects were asked to void between 1.5 to 2 h and 2.75 to 3 h after ^68Ga-CDI administration, urine collected, the volume measured, and an aliquot counted in a gamma counter to determine activity concentration. Following completion of the scanning protocol, ECG was recorded, and blood collected for biochemical and haematological assessment.
as §2

O=C(O)CNC(=O)[C@H](CSCC(=O)Nc1ccc([As](O)O)cc1)NC(=O)CC[C@H](NC(=O)CCC1C(=O)[O][68Ga]2[O]C(=O)CN3CCN(CCN1CC3)CC(=O)[O]2)C(=O)O (stereo partly shown) [^68Ga-NODAGA-GSAO]
tumor uptake SUVmax (tumor deposits; breast carcinoma): 2.5 | tumor uptake SUVmax (tumor deposits; metastatic colorectal carcinoma): 4.4 | tumor uptake SUVmax (tumor deposits; metastatic cutaneous squamous cell carcinoma): 6.5 | tumor uptake SUVmax (tumor deposits; metastatic ovarian carcinoma): 2.7 | tumor uptake SUVmax (tumor deposits; squamous cell carcinoma of the oesophagus): 5.7 | tumor retention (tumor deposits; tumor in 4 of the 5 patients): prolonged retention throughout the duration of imaging | activity remaining in the blood pool, average ([1]; 1 hour): 12.2 % IA | average SUV kidneys ([1]; 1 hour post injection): 5.3 SUV | activity remaining in the blood pool, average ([1]; 2 hours): 8.8 % IA | average SUV kidneys ([1]; 2 hours post injection): 4.9 SUV | activity remaining in the blood pool, average ([1]; 3 hours): 7.7 % IA | average SUV kidneys ([1]; 3 hours post injection): 4.0 SUV | total activity excreted in urine ([1]; by 90 minutes): 39±18%
